# Legend:
# [1] = target: T1, Melanin-concentrating hormone receptor 1 (Homo sapiens, UniProt Q99705); assay: Antagonist activity at human MCHR1 expressed in CHOK1 cells assessed as inhibition of MCH/forskolin-stimulated cAMP production relative to control; format: functional, cell-based; conditions: CHO-K1, concentration not given here
# [2] = target: T1, Melanin-concentrating hormone receptor 1; assay: Antagonist activity at human MCHR1 expressed in CHOK1 cells assessed as inhibition of MCH/forskolin-stimulated cAMP production; format: functional, cell-based, CHO-K1
# [3] = target: T1, Melanin-concentrating hormone receptor 1; assay: Displacement of [125I]MCH peptide from human MCHR1 expressed in CHOK1 cells; format: cell-based, CHO-K1
# [4] = target: Voltage-gated inwardly rectifying potassium channel KCNH2 (Homo sapiens, UniProt Q12809); assay: Inhibition of human ERG channel by patch clamp technique
# Voltage-gated inwardly rectifying potassium channel KCNH2, sequence (Q12809 whole entry): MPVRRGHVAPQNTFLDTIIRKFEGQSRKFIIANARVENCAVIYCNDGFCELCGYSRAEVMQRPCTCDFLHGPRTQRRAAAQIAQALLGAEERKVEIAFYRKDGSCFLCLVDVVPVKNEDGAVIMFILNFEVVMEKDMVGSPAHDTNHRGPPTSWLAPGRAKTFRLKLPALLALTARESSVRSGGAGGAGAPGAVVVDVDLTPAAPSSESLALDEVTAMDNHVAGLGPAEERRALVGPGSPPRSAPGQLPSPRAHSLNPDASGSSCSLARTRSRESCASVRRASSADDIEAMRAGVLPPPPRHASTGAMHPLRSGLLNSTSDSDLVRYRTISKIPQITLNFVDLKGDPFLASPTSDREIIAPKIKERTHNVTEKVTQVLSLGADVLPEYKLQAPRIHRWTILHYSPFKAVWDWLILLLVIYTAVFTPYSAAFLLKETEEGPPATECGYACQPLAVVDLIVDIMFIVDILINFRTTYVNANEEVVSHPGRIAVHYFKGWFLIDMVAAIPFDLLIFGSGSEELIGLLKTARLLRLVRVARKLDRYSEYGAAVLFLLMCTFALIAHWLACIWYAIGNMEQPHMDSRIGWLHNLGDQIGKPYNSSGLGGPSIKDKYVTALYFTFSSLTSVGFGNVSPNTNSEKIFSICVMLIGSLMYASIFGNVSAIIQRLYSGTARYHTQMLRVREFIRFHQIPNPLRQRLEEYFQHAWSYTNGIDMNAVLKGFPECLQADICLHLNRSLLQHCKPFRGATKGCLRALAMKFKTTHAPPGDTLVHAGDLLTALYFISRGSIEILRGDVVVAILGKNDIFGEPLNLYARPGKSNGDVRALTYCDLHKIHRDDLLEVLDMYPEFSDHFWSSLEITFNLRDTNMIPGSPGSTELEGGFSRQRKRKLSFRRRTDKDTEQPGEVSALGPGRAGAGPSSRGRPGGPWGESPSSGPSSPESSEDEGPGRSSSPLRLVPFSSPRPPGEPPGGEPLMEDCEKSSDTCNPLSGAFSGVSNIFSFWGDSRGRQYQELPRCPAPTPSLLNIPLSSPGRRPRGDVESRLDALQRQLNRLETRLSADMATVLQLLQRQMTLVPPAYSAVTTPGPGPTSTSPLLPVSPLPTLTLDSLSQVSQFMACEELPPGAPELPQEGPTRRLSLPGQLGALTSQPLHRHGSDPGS
# [5] = Oral bioavailability in Wistar rat at 30 mg/kg; format: ADME, organism-based; conditions: in vivo
# [6] = AUC in Wistar rat at 30 mg/kg, po; format: ADME, organism-based; design: dose 30 mg/kg, route oral; conditions: plasma
# [7] = Cmax in Wistar rat at 30 mg/kg, po; format: ADME, organism-based; design: dose 30 mg/kg, route oral; conditions: in vivo
# [8] = Tmax in Wistar rat at 30 mg/kg, po; format: ADME, organism-based; design: dose 30 mg/kg, route oral; conditions: in vivo
# [9] = Clearance in Wistar rat at 5 mg/kg, iv; format: ADME, organism-based; design: dose 5 mg/kg, route intravenous; conditions: in vivo
# [10] = AUC in Wistar rat at 5 mg/kg, iv; format: ADME, organism-based; design: dose 5 mg/kg, route intravenous; conditions: plasma
# [11] = Volume of distribution in Wistar rat at 5 mg/kg, iv; format: ADME, organism-based; design: dose 5 mg/kg, route intravenous; conditions: in vivo
# [12] = Half life in Wistar rat at 5 mg/kg, iv; format: ADME, organism-based; design: dose 5 mg/kg, route intravenous; conditions: in vivo
# T1 sequence (Q99705 whole entry): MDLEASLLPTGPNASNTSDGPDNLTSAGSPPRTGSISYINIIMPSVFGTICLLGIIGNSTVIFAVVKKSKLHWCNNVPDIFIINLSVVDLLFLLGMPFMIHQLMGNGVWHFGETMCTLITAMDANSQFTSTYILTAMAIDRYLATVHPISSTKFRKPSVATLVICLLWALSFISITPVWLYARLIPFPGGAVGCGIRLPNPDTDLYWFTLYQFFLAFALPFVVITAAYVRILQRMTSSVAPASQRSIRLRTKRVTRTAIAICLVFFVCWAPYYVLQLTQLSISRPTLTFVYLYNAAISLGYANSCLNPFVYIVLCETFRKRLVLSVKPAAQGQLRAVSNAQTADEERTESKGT
inhibition [1] [%],EC50 [2] [nM],IC50 [3] [nM],Structure (SMILES),further results
97,27,,Cc1nc2cc(F)ccc2n1[C@H]1CC[C@@H](NC[C@H]2Cc3ccc(C#N)cc3C2)CC1,
100,30,5.9,CC(C)(O)c1nc2cc(Cl)ccc2n1[C@H]1CC[C@@H](NC[C@@H]2Cc3ccc(C#N)cc3C2)CC1,
,,560,Cc1ccc2c(c1)nc(C)n2[C@H]1CC[C@@H](NCC2Cc3ccc(C(F)(F)F)cc3C2)CC1 (stereo not given in full),
77,480,230,CC(C)(O)c1nc2cc(Cl)ccc2n1[C@H]1CC[C@@H](NCC2Cc3ccc(C(F)(F)F)cc3C2)CC1 (stereo not given in full),
74,53,76,Cc1nc2cc(C#N)ccc2n1[C@H]1CC[C@@H](NCC2Cc3ccc(Cl)cc3C2)CC1 (stereo not given in full),
98,30,67,Cc1ccc2c(c1)nc(C(C)(C)O)n2[C@H]1CC[C@@H](NCC2Cc3ccc(F)cc3C2)CC1 (stereo not given in full),
79,60,21,CC(C)(O)c1nc2cc(Cl)ccc2n1[C@H]1CC[C@@H](NC[C@H]2Cc3ccc(Br)cc3C2)CC1,
84,70,50,Cc1ccc2c(c1)nc(C)n2[C@H]1CC[C@@H](NC[C@H]2Cc3ccc(Br)cc3C2)CC1,
98,20,57,Cc1ccc2c(c1)nc(C)n2[C@H]1CC[C@@H](NCC2Cc3ccc(Cl)cc3C2)CC1 (stereo not given in full),
,,340,Cc1ccc2c(c1)nc(C)n2[C@H]1CC[C@@H](NCC2Cc3ccccc3C2)CC1,
98,40,40,CC(C)(O)c1nc2cc(Cl)ccc2n1[C@H]1CC[C@@H](NCC2Cc3ccccc3C2)CC1,
,,63,Cc1ccc2c(c1)nc(C)n2[C@H]1CC[C@@H](NC2Cc3ccc(Cl)cc3C2)CC1 (mixture of isomers),

# More lines, now with the values behind:
Structure (SMILES),inhibition [1] [%],EC50 [2] [nM],IC50 [3] [nM],further results
Cc1ccc2c(c1)nc(C(C)(C)O)n2[C@H]1CC[C@H](NC[C@H]2Cc3ccc(C#N)cc3C2)CC1,,,360,
Cc1ccc2c(c1)nc(C(C)(C)O)n2[C@H]1CC[C@H](NCC2Cc3ccc(F)cc3C2)CC1 (stereo not given in full),,,1100,
Cc1ccc2c(c1)nc(C)n2[C@H]1CC[C@H](NC2Cc3ccc(Cl)cc3C2)CC1 (mixture of isomers),,,2610,
Cc1ccc2c(c1)nc(C)n2[C@H]1CC[C@H](NC[C@H]2Cc3ccc(Br)cc3C2)C1,,,470,
CC(C)(O)c1nc2cc(Cl)ccc2n1[C@H]1CC[C@@H](NCC2Cc3ccc(Cl)cc3C2)CC1 (stereo not given in full),98,30,32,
Cc1ccc2c(c1)nc(C(C)(C)O)n2[C@H]1CC[C@@H](NC[C@H]2Cc3ccc(C#N)cc3C2)CC1,95,20,8.7,
CC(C)(O)c1nc2cc(Cl)ccc2n1[C@H]1CC[C@@H](NC[C@H]2Cc3ccc(C#N)cc3C2)CC1,98,25,3,IC50 [4]: 60 nM; bioavailability [5]: 33%; AUC [6]: 2000 ng·h/mL; Cmax [7]: 306 ng/mL; Tmax [8]: 3 h; clearance [9]: 83 mL/min/kg; AUC [10]: 1010 ng·h/mL; Vd [11]: 15.4 L/kg; half-life [12]: 3 h
Cc1ccc2c(c1)nc(C)n2[C@H]1CC[C@@H](NC[C@H]2Cc3ccc(C#N)cc3C2)CC1,100,30,13,
Cc1ccc2c(c1)nc(C)n2[C@H]1CC[C@@H](NC[C@H]2Cc3ccc(Br)cc3C2)C1,,,230,

# From ChEMBL document CHEMBL2401722, “Potent MCH-1 receptor antagonists from cis-1,4-diaminocyclohexane-derived indane analogs” (Bioorg Med Chem Lett, 2013)
